Measurements published in paper PMC5772648, “Targeted NUDT5 inhibitors block hormone signaling in breast cancer cells” (Nature Communications, 2018).

Key:
[1] = system: U-2 OS cells; test: modified alkaline comet assay (OGG1-specific lesions); format: cell-based; details: 10 µM, 24 or 72 h
Protocol: The modified comet assay was used to determine relative amounts of OGG1-specific substrates (e.g., 8-oxo-dG) within cellular DNA[9]. U-2 OS cells were transfected with siRNA for 72 h and/or treated with DMSO/500 nM TH1579 for 24 h prior to harvesting by trypsinization. For experiments with TH5427, cells were treated for 24 or 72 h with 10 µM compound.
In brief, 120 µL of 1% agarose in PBS was added to one end of a fully-frosted microscope slide (ThermoFisher Scientific) and protected with a 24 × 40 mm coverslip to form the first layer. Once solidified at 4 °C, the second layer was made by mixing 400 µL of 1.2% low-melting agarose in PBS with 100 µL of a 1 × 10^6 cells/mL suspension in PBS kept at 37 °C. The coverslip was removed and 80 µL was added on top of the first layer, spread with a coverslip, and left to solidify at 4 °C for 5–10 minutes. Two slides were made for each condition. […]
The slides were visualized using a 10x objective and a Zeiss LSM 780 confocal or Zeiss Axiovert 35 microscope. Comets were analyzed with OpenComet (www.cometbio.org/) or Comet Assay IV (http://www.perceptive.co.uk/products/comet-assay-iv/) software and the tail moments (tail length x percent DNA in the tail) were automatically calculated. […] At least 100 cells were analyzed for each condition per replicate.

[2] = biological target: T1, NUDT12 (Homo sapiens, UniProt Q9BQG2); test: phosphohydrolase selectivity, malachite green assay; format: biochemical
T1 construct: His-tag (N); made in house; host or cells: E. coli BL21 (DE3) R3 pRARE2
Protocol: (§1) The selectivity assay for TH5427 against similar pyrophosphohydrolases was performed with MTH1, NUDT9, NUDT2, NUDT12, NUDT14, NUDT15, NUDT18, ITPase, dCTPase and dUTPase[9]. All analyses were performed by malachite green assay following 30 min incubation at room temperature in reaction buffer (100 mM Tris Acetate, pH 7.5, 40 mM NaCl, 10 mM MgAc, 1 mM DTT) with 100 µM TH5427 and preferred substrates for each enzyme (4.75 nM MTH1 with 100 µM dGTP, 8 nM NUDT15 with 100 µM dGTP, 8 nM NUDT2 with 16 µM AP4A, 2 nM NUDT5 with 50 µM ADPR, 20 nM NUDT9 with 50 µM ADPR, 20 nM NUDT12 with 50 µM NADH, 2 nM NUDT14 with 50 µM ADPR, 200 nM NUDT18 with 50 µM 8-oxo-dGTP, 0.2 nM ITPase with […], 35 nM dCTPase with 35 µM dCTP, and 1 nM dUTPase with 12.5 µM dUTP). MTH1, NUDT15, NUDT18, ITPase, dCTPase and dUTPase reactions were coupled with 0.2 U/mL pyrophosphatase, while NUDT2, NUDT5, NUDT9, NUDT12, and NUDT14 reactions were coupled by bovine intestinal phosphatase (10 U/mL).

[3] = biological target: T2, dCTPase (Homo sapiens, UniProt Q9H773); test: as above; format: biochemical
T2 construct: His-tag (N, cleaved yes); made in house; host or cells: E. coli BL21 (DE3) R3 pRARE2
T2 sequence (Q9H773 1-170): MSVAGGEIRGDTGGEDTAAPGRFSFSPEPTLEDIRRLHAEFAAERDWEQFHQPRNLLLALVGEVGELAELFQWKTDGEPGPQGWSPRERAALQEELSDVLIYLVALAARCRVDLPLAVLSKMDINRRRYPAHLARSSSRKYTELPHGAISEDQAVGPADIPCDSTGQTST
Protocol: as §1

[4] = biological target: T3, NUDT14 (Homo sapiens, UniProt O95848); test: as above; format: biochemical
T3 construct: His-tag (N); made in house; host or cells: E. coli BL21 (DE3) R3 pRARE2
T3 sequence (O95848 1-222): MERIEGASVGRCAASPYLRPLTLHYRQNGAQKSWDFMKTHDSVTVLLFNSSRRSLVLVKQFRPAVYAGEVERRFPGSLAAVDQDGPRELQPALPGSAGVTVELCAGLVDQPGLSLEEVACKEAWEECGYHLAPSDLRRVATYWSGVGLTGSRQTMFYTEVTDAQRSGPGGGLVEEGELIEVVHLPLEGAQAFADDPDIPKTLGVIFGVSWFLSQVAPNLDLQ
Protocol: as §1

[5] = biological target: T4, NUDT9 (Homo sapiens, UniProt Q9BW91); test: as above; format: biochemical; details: 100 µM
T4 construct: His-tag (N); made in house; host or cells: E. coli BL21 (DE3) R3 pRARE2
T4 sequence (Q9BW91 47-350): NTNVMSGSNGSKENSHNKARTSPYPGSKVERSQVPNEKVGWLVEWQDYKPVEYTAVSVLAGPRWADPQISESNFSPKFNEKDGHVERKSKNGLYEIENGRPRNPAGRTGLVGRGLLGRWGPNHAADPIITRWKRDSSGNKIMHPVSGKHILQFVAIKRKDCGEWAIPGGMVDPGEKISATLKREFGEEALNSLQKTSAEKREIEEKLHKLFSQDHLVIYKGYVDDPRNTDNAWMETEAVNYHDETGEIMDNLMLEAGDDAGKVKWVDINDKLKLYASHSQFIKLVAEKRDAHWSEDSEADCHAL
Protocol: as §1

T1 sequence (Q9BQG2 whole entry): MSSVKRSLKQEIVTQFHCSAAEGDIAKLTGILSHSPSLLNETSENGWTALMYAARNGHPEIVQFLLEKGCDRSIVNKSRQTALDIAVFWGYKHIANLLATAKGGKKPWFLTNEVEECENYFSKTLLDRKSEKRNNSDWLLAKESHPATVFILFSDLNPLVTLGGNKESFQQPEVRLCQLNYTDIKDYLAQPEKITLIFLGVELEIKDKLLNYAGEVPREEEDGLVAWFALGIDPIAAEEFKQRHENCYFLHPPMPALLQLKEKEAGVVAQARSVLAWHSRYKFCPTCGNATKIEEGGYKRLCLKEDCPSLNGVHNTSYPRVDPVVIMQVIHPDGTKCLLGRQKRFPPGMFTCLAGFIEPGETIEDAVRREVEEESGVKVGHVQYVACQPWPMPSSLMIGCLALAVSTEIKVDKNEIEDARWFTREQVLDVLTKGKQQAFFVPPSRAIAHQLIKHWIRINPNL

Cn1c(=O)c2c(nc(N3CCNCC3)n2Cc2nnc(-c3ccc(Cl)c(Cl)c3)o2)n(C)c1=O [TH5427]
OGG1-specific DNA lesions [1]: nor increased OGG1-specific DNA lesions
inhibition at 100 µM [2]: 66%
inhibition at 100 µM [3]: 39%
inhibition at 100 µM [4]: 38%
effect on NUDT9-mediated hydrolysis of ADPR [5]: no effect
